EC50 data for three compounds are collected here from ChEMBL document CHEMBL5543094, “Exploration of P1 and P4 modifications of nirmatrelvir: Design, synthesis, biological evaluation, and X-ray structural studies of SARS-CoV-2 Mpro inhibitors” (Eur J Med Chem, 2024).

Common to all, as to assay type: functional, organism-based
Assay [1] deals with SARS-CoV-2. In words: Antiviral activity against SARS-CoV-2 Wuhan 5-2N variant infected in African green monkey Vero E6 cells measured 3 days post infection by WST-8 assay. The settings on record: Severe acute respiratory syndrome coronavirus 2, Wuhan 5-2N, Vero C1008, 72 h. A general note: Tetrazolium dyes change colour on reduction, which living cells bring about.
For assay [2], the system named is SARS-CoV-2. The assay can be described thus: Antiviral activity against SARS-CoV-2 Gamma TY7 variant infected in African green monkey Vero E6 cells measured 3 days post infection by WST-8 assay. To be noted: Severe acute respiratory syndrome coronavirus 2, Gamma TY7, Vero C1008, 72 h.
The test system of assay [3] is SARS-CoV-2. The assay can be described thus: Antiviral activity against SARS-CoV-2 Alpha QK002 variant infected in African green monkey Vero E6 cells measured 3 days post infection by WST-8 assay. To be noted: Severe acute respiratory syndrome coronavirus 2, Alpha QK002, Vero C1008, 72 h.
The test system of assay [4] is SARS-CoV-2. The assay can be described thus: Antiviral activity against SARS-CoV-2 Beta TY8 variant infected in African green monkey Vero E6 cells measured 3 days post infection by WST-8 assay. To be noted: Severe acute respiratory syndrome coronavirus 2, Beta TY8, Vero C1008, 72 h.
Assay [5] relates to SARS-CoV-2. The assay can be described thus: Antiviral activity against SARS-CoV-2 Delta K1734 variant infected in African green monkey Vero E6 cells measured 3 days post infection by WST-8 assay. To be noted: Severe acute respiratory syndrome coronavirus 2, Delta K1734, Vero C1008, 72 h.
The subject of assay [6] is SARS-CoV-2. The assay can be described thus: Antiviral activity against SARS-CoV-2 Omicron 929 variant infected in African green monkey Vero E6 cells measured 7 days post infection by WST-8 assay. The settings on record: Severe acute respiratory syndrome coronavirus 2, Omicron 929, Vero C1008, 168 h.

Turning to `CC(C)(C)[C@H](NC(=O)C(Cl)(Cl)Cl)C(=O)N1C[C@H]2[C@@H]([C@H]1C(=O)N[C@H](C#N)C[C@@H]1CCCNC1=O)C2(C)C`, the concentration giving a half-maximal response (EC50) in assay [1] stood at 0.7 µM; in assay [2], 2 µM; in assay [3] it was 0.8 µM; in assay [4], 2.4 µM; in assay [5], 0.6 µM; in assay [6], 4 µM.
Consider `CC(C)(C)[C@H](NC(=O)C(F)(F)F)C(=O)N1C[C@H]2[C@@H]([C@H]1C(=O)N[C@H](C#N)C[C@@H]1CCNC1=O)C2(C)C`, for which the EC50 in assay [1] is 3 µM; in assay [2] it was 4 µM; in assay [3], 2.5 µM; in assay [4], 3.7 µM; in assay [5], 2.9 µM; in assay [6], 3.1 µM.
Consider `CCC(CC)COC(=O)[C@H](C)N[P@](=O)(OC[C@H]1O[C@@](C#N)(c2ccc3c(N)ncnn23)[C@H](O)[C@@H]1O)Oc1ccccc1`, for which the EC50 is 3.8 µM in assay [1]; 2.6 µM in assay [2]; 3.5 µM in assay [3]; 2.8 µM in assay [4]; 2.9 µM in assay [5]; 4.2 µM in assay [6].

The EC50 is the concentration that produces a half-maximal response.
